Test results reported in US20260224566A1, “Obicetrapib and Ezetimibe Combination Treatment and Fixed Dose Pharmaceutical Compositions” (NewAmsterdam Pharma B.V., priority 2023, published 2026).

Tests used:
[1] = test system: Lp(a); details: TA-8995-06, 12 weeks of treatment; cited from earlier work
[2] = test system: ApoE*3-Leiden.CETP transgenic mice; assay: Example 12: plasma lipids, VLDL clearance, LDL receptor, fecal and biliary sterols in ApoE*3-Leiden.CETP mice; format: in vivo, mouse
Excerpt: Obicetrapib is a selective cholesteryl ester transfer protein (CETP) inhibitor currently in clinical development for the treatment of hypercholesterolemia and reduction of cardiovascular risk that strongly reduces Apolipoprotein B (ApoB) and low-density lipoprotein cholesterol (LDL-C) and concomitantly increases plasma high-density lipoprotein cholesterol (HDL-C). Ezetimibe reduces absorption of biliary and dietary cholesterol from the small intestine, thereby reducing LDL-C levels. The current study was carried out to elucidate the mechanism of action responsible for the observed decrease in non-HDL-C by obicetrapib monotherapy and in combination with ezetimibe in a translational mouse model for hyperlipidemia and atherosclerosis.
(§1) The experimental protocol is illustrated in FIG. 71, with time (t) measured in weeks. Female ApoE*3-Leiden.CETP transgenic mice were fed a Western diet with 0.05% w/w cholesterol (equivalent to daily human intake) with (i) no drug (control), or the same diet containing (ii) obicetrapib alone (2 mg/kg/day), (iii) ezetimibe alone (1 mg/kg/day) or (iv) the combination of obicetrapib and ezetimibe. In the experiment, the effects of the treatments on, amongst other things, plasma blood lipids and fecal bile acids and sterols were determined.

[3] = test system: participants currently receiving high-intensity statin therapy; assay: ROSE2 Phase 2b clinical trial: safety and tolerability (adverse events, disposition); format: in vivo, human
Description: The safety and tolerability profile of obicetrapib 10 mg, both in combination with ezetimibe 10 mg and as monotherapy, will be assessed by clinical laboratory assessments (chemistry and hematology), vital signs, physical examinations, and the incidence of AEs.
An AE can therefore be any unfavorable and/or unintended sign (including an abnormal laboratory finding), symptom, or disease temporally associated with the use of an investigational medicinal product, whether or not related to the investigational medicinal product. All AEs, including observed or volunteered problems, complaints, or symptoms, are to be recorded on the appropriate eCRF.
AEs, which include clinical laboratory assessment variables, will be monitored and documented from the time of first dose of study treatment until completion of Visit 5. Participants should be instructed to report any AE that they experience to the Investigator, whether or not they think the event is due to study drug. Beginning at the date of the first dose of study treatment, Investigators should make an assessment for AEs at each visit and record the event on the appropriate AE eCRF.
The Investigator will assess the severity (intensity) of each AE as mild, moderate, or severe, and will also categorize each AE as to its potential relationship to study drug using the categories of yes or no.
An AE or adverse reaction is considered serious if, in the view of either the Investigator or Sponsor, it results in any of the following outcomes: • Death; • A life-threatening AE; Note: An AE or adverse reaction is considered “life-threatening” if, in view of either the Investigator or Sponsor, its occurrence places the participant at immediate risk of death. […] However, unexpected complications and/or prolongation of hospitalization that occur during elective surgery should be recorded as AEs and assessed for seriousness. Admission to the hospital for social or situational reasons (ie, no place to stay, live too far away to come for hospital visits, respite care) will not be considered inpatient hospitalizations. • A persistent or significant disability/incapacity or substantial disruption of the ability to conduct normal life functions; • A congenital anomaly/birth defect; or • An important medical event.
The Safety Population will include all participants who receive at least 1 dose of any study drug. Treatment classification will be based on the actual treatment received. The Safety Population will be the primary population used for the safety analyses.

[4] = TA-8995-04, healthy volunteers; cited from earlier work
[5] = test system: ApoE*3-Leiden.CETP transgenic mice; assay: Example 13: plasma cholesterol and atherosclerosis development in aortic root of ApoE*3-Leiden.CETP mice; format: in vivo, mouse
Description: The current study was carried out to evaluate the effect of obicetrapib monotherapy and a combination of obicetrapib+ezetimibe on atherosclerosis development in a translational mouse model for hyperlipidemia and atherosclerosis.
as §1, with “82,” for “71,”, “(on average 0.6” for “(1”, “ezetimibe.” for “ezetimibe. In the experiment, the effects of the treatments on, amongst other things, plasma blood lipids and fecal bile acids and sterols were determined.”

[6] = obicetrapib 2 mg/kg/day, ezetimibe 1 mg/kg/day in Western diet
[7] = All Randomized Participants, obicetrapib 10 mg (N = 39), obicetrapib 10 mg + ezetimibe 10 mg (N = 40)
[8] = Safety Population, 10 mg each drug
[9] = Safety Population, 10 mg each drug, last line so labelled (r41)
[10] = aortic root, 28 weeks of treatment
[11] = obicetrapib 2 mg/kg/day, ezetimibe on average 0.6 mg/kg/day in Western diet

CCOC(=O)N1c2ccc(C(F)(F)F)cc2[C@@H](N(Cc2cc(C(F)(F)F)cc(C(F)(F)F)c2)c2ncc(OCCCC(=O)O)cn2)C[C@H]1CC [obicetrapib, {4-[(2-{[3,5-bis(trifluoromethyl)benzyl] [(2R,4S)-1-(ethoxycarbonyl)-2-ethyl-6-(trifluoromethyl)-1,2,3,4-tetrahydroquinolin-4-yl]amino}pyrimidin-5-yl)oxy]butanoic acid}]
Lp(a) levels [1]: statistically significant reduction | triglycerides levels ([2]; FIG. 74): decreased | liver uptake of VLDL like particles ([2]; FIG. 77): increased | plasma pcsk-9 levels ([2]; FIG. 78): decreased | cholesterol balance ([2]; FIG. 81): decreased | biliary bile acids and biliary bile acid flow ([2]; not shown): did not affect | biliary phospholipids and biliary phospholipid flow ([2]; not shown): did not affect | fecal bile acid excretion, change ([2]; obicetrapib 2 mg/kg/day in Western diet): +41% | ApoA1 levels, increase [2, 6]: 98% | HDL-C, change [2, 6]: +260% | half-life of VLDL-like particles, change [2, 6]: −44% | hepatic LDL receptor expression, change [2, 6]: +63% | non-HDL-C levels, change [2, 6]: −61% | total plasma cholesterol levels, change [2, 6]: −42% | Completed the study (with PK), (%) [3, 7]: (94.9) % | Completed treatment, (%) [3, 7]: (92.3) % | Discontinued study early, (%) [3, 7]: (5.1) % | Discontinued treatment, (%) [3, 7]: (7.7) % | Primary reason for early study discontinuation: LOST TO FOLLOW-UP, (%) [3, 7]: (2.6) % | Primary reason for early study discontinuation: OTHER, (%) [3, 7]: (0.0) % | Primary reason for early study discontinuation: WITHDRAWAL BY SUBJECT, (%) [3, 7]: (0.0) % | Primary reason for treatment discontinuation: NON-COMPLIANCE WITH STUDY DRUG, (%) [3, 7]: (2.6) % | Primary reason for treatment discontinuation: OTHER, (%) [3, 7]: (0.0) % | Primary reason for treatment discontinuation: WITHDRAWAL BY SUBJECT, (%) [3, 7]: (0.0) % | Any TEAEs by maximum severity: Mild, e [3, 8]: 20 | Any TEAEs by maximum severity: Moderate, (%) [3, 8]: (7.7) % | Any TEAEs leading to death, (%) [3, 8]: (0.0) % | Any TEAEs leading to death, e [3, 8]: 0 | Any serious TEAEs (TESAEs), (%) [3, 8]: (5.1) % | Any serious TEAEs (TESAEs), e [3, 8]: 2 | Any study drug-related TEAEs by maximum severity: Mild, e [3, 8]: 4 | Any study drug-related TEAEs by maximum severity: Moderate, (%) [3, 8]: (5.1) % | Any study drug-related TEAEs by maximum severity: Severe, (%) [3, 8]: (5.1) % | Any study drug-related TEAEs leading to discontinuation of study drug, (%) [3, 8]: (5.1) % | Any study drug-related TEAEs, (%) [3, 8]: (2.6) % | Any study drug-related TESAEs, (%) [3, 8]: (2.6) % | Any study drug-related TESAEs, e [3, 8]: 1 | Any treatment-emergent AEs (TEAEs), e [3, 8]: 20 | Any TEAEs leading to discontinuation of study drug, (%) ([3]; Safety Population, 10 mg each drug, first line so labelled (r25)): (0.0) % | Any TEAEs leading to discontinuation of study drug, (%) [3, 9]: (0.0) % | Any TEAEs leading to discontinuation of study drug, e [3, 9]: 0 | effect on the QTcF [4]: no effect | HDL-cholesterol ([5]; FIG. 84B): increases | percentage of unaffected segments, increase [5, 10]: +347% | severe lesions (types IV-V), change [5, 10]: −82% | total atherosclerotic lesion size, change ([5]; aortic root, 28 weeks of treatment, versus control): −90% | non-HDL-C levels, change [5, 11]: −53% | total plasma cholesterol levels, change [5, 11]: −31% | lesion number ([5]; versus control animals, FIG. 90B): statistically significant reductions
